For orientation: IC50 means the concentration that gives 50% inhibition.

In one assay the target is T1, Fructose-1,6-bisphosphatase 1 (Homo sapiens, UniProt P09467).
T1 sequence (P09467 whole entry): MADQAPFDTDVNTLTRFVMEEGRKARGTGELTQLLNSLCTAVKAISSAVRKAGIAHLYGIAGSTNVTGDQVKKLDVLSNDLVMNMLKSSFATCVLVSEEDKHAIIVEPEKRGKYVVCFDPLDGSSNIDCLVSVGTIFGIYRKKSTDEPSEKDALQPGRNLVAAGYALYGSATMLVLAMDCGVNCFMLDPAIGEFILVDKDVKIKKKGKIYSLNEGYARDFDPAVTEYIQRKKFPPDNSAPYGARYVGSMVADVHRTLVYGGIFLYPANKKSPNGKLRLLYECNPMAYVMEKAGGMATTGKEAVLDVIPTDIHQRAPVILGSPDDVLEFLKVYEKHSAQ
The experiment in a line: Inhibition of human recombinant FBPase expressed in Escherichia coli BL21(DE3) by phosphoglucose isomerase and glucose-6-phosphate dehydrogenase coupled assay.
For the compound `O=C(O)c1cc2c(-c3cccc(C(F)(F)F)c3)ccc([N+](=O)[O-])c2[nH]1`, the 50% inhibitory concentration (IC50) is greater than 50 µM.
Same read-out and setting: to `Nc1cccc(-c2ccc([N+](=O)[O-])c3[nH]c(C(=O)O)cc23)c1` belongs greater than 50 µM; to `O=C(O)c1[nH]c2c([N+](=O)[O-])cccc2c1-c1ccccc1`, 12.7 µM.
On to `O=C(O)c1cc2c(Nc3ccccc3)ccc([N+](=O)[O-])c2[nH]1`, for which the IC50 was greater than 50 µM.
Still for that read-out and setting: to `CC(=O)Nc1cccc(Nc2ccc([N+](=O)[O-])c3[nH]c(C(=O)O)cc23)c1` belongs greater than 50 µM.
On the same count and under the same terms, to `COc1cc(Nc2ccc([N+](=O)[O-])c3[nH]c(C(=O)O)cc23)cc(OC)c1OC` belongs greater than 50 µM.
As for `CCc1c(C(=O)O)[nH]c2c([N+](=O)[O-])cccc12`, the IC50 was determined as 6.2 µM.
Same read-out and setting: to `O=C(O)c1cc2c(Nc3cccc(Cl)c3)ccc([N+](=O)[O-])c2[nH]1` belongs greater than 50 µM; to `COc1ccc(Nc2ccc([N+](=O)[O-])c3[nH]c(C(=O)O)cc23)cc1OC`, 7.7 µM; to `CCc1c(C(=O)O)[nH]c2c([N+](=O)[O-])cc(CC(C)C)cc12`, 0.99 µM.
The same measure, in the same setting: to `O=C(O)c1cc2c(Nc3cccc([N+](=O)[O-])c3)ccc([N+](=O)[O-])c2[nH]1` belongs greater than 50 µM; to `O=C(O)c1cc2c(Nc3ccc(Cl)cc3)ccc([N+](=O)[O-])c2[nH]1`, greater than 50 µM; to `O=C(O)c1[nH]c2c([N+](=O)[O-])cccc2c1-c1cccc(F)c1`, 4.5 µM.
Still for that read-out and setting: the figure for `O=C(O)c1cc2c(Nc3ccc(C(F)(F)F)cc3)ccc([N+](=O)[O-])c2[nH]1` is 12.2 µM.
With `CC(=O)Nc1cccc(-c2ccc([N+](=O)[O-])c3[nH]c(C(=O)O)cc23)c1`, the IC50 turned out to be 18.5 µM.
Still for that read-out and setting: the figure for `COc1cccc(-c2ccc([N+](=O)[O-])c3[nH]c(C(=O)O)cc23)c1` is greater than 50 µM.
As for `COc1cccc(-c2c(C(=O)O)[nH]c3c([N+](=O)[O-])cccc23)c1`, the half-inhibitory concentration (IC50) came to 35.6 µM.
The same measure, in the same setting: to `O=C(O)c1cc2c(-c3cccc(Cl)c3)ccc([N+](=O)[O-])c2[nH]1` belongs greater than 50 µM; to `Nc1ncnc2c1ncn2[C@@H]1O[C@H](COP(=O)(O)O)[C@@H](O)[C@H]1O` [ADENOSINE PHOSPHATE], 3.2 µM; to `CCCN(c1cccc(OC)c1)c1ccc([N+](=O)[O-])c2[nH]c(C(=O)O)cc12`, greater than 50 µM.
On the same count and under the same terms, to `Cc1cccc(Nc2ccc([N+](=O)[O-])c3[nH]c(C(=O)O)cc23)c1` belongs 4.3 µM; to `CC(C)Cc1cc([N+](=O)[O-])c2[nH]c(C(=O)O)cc2c1`, 5.4 µM; to `Nc1cccc(Nc2ccc([N+](=O)[O-])c3[nH]c(C(=O)O)cc23)c1`, greater than 50 µM.
The same measure, in the same setting: the figure for `CC(=O)Nc1cccc(-c2c(C(=O)O)[nH]c3c([N+](=O)[O-])cccc23)c1` is 7.4 µM.
For the compound `COc1cccc(N(C)c2ccc([N+](=O)[O-])c3[nH]c(C(=O)O)cc23)c1`, the IC50 is greater than 50 µM.
Same read-out and setting: the figure for `CC(C)Cc1c(C(=O)O)[nH]c2c([N+](=O)[O-])cccc12` is 10.3 µM.
The same measure, in the same setting: the figure for `CC(=O)Nc1cccc(-c2cc([N+](=O)[O-])c3[nH]c(C(=O)O)cc3c2)c1` is 3.7 µM.
Same read-out and setting: the figure for `O=C(O)c1cc2c(-c3ccc(Cl)cc3)ccc([N+](=O)[O-])c2[nH]1` is greater than 50 µM; for `O=C(O)CCc1c(C(=O)O)[nH]c2cc(Cl)cc(Cl)c12` it is 2 µM.
Take `COc1ccc(Nc2ccc([N+](=O)[O-])c3[nH]c(C(=O)O)cc23)cc1`: the IC50 was greater than 50 µM.
For the compound `COc1ccccc1Nc1ccc([N+](=O)[O-])c2[nH]c(C(=O)O)cc12`, the IC50 was greater than 50 µM.
The same measure, in the same setting: to `COc1cccc(Nc2cc([N+](=O)[O-])c3[nH]c(C(=O)O)cc3c2)c1` belongs 4.06 µM; to `Cc1ccc(Nc2ccc([N+](=O)[O-])c3[nH]c(C(=O)O)cc23)cc1`, 33.9 µM.
Same read-out and setting: the figure for `N#Cc1cccc(-c2ccc([N+](=O)[O-])c3[nH]c(C(=O)O)cc23)c1` is greater than 50 µM.
Still for that read-out and setting: to `O=C(O)c1cc2c(-c3ccccc3)ccc([N+](=O)[O-])c2[nH]1` belongs greater than 50 µM; to `CC(C)Cc1ccc([N+](=O)[O-])c2[nH]c(C(=O)O)cc12`, 9.7 µM; to `N#Cc1ccc(-c2ccc([N+](=O)[O-])c3[nH]c(C(=O)O)cc23)cc1`, greater than 50 µM.
For `O=C(O)c1cc2c(Nc3cccc(C(F)(F)F)c3)ccc([N+](=O)[O-])c2[nH]1`, the IC50 amounted to 29.1 µM.
Still for that read-out and setting: the figure for `O=C(O)c1cc2c(-c3ccc(C(F)(F)F)cc3)ccc([N+](=O)[O-])c2[nH]1` is greater than 50 µM.
Turning to `Cc1cccc(-c2ccc([N+](=O)[O-])c3[nH]c(C(=O)O)cc23)c1`, the IC50 is 25.9 µM.
Consider `O=C(O)c1cc2c(Nc3ccc([N+](=O)[O-])cc3)ccc([N+](=O)[O-])c2[nH]1`, for which the IC50 is 3.4 µM.
Still for that read-out and setting: the figure for `COc1cccc(Nc2ccc([N+](=O)[O-])c3[nH]c(C(=O)O)cc23)c1` is 25.6 µM.

For the next assay, the target named is T1, Fructose-1,6-bisphosphatase 1. The assay is described as follows: Inhibition of FBPase (unknown origin).
In turn, `O=C(O)CCc1c(C(=O)O)[nH]c2cc(Cl)cc(Cl)c12` had an IC50 of 2.5 µM.

The values above are taken from ChEMBL document CHEMBL3124937, “Design, synthesis and biological evaluation of 7-nitro-1H-indole-2-carboxylic acid derivatives as allosteric inhibitors of fructose-1,6-bisphosphatase” (Bioorg Med Chem, 2014).
